Measurements: ChEMBL document CHEMBL3352488, “1,3-Dimethyl Benzimidazolones Are Potent, Selective Inhibitors of the BRPF1 Bromodomain” (ACS Med Chem Lett, 2014)
≈ marks a conversion by molar mass, not a printed value. Calls of active or inactive are those of the source. No cut-off for these calls is given here.

Tests used:
[1] = Permeability of the compound across artificial lipid membrane; format: ADME; settings: not told; read-out: permeability
[2] = Aqueous solubility of the compound in DMSO/phosphate buffered saline at pH7.4 by chemiluminescent nitrogen detection method; format: physicochemical; settings: pH 7.4
[3] = molecular target: Bromodomain-containing protein 4 (Homo sapiens, UniProt O60885, Y390A); test: Binding affinity to 6His-tagged-BRD4 BD1 Y390A mutant (1 to 477 aa) (unknown origin) by TR-FRET competitive assay
[4] = molecular target: Bromodomain-containing protein 4 (Homo sapiens) (UniProt O60885); test: Binding affinity to His-tagged-BRD4 BD1 (1 to 477 aa) (unknown origin) by STD-NMR analysis
[5] = molecular target: Bromodomain-containing protein 4 (Homo sapiens) (UniProt O60885); test: Binding affinity to His-tagged-BRD4 BD1 (1 to 477 aa) (unknown origin) by STD-NMR analysis in presence of GW841819

Row | SMILES | IC50 [3] | further results
1 | COc1ccccc1C(=O)Nc1cc2c(cc1N1CCCCC1)n(C)c(=O)n2C |  | Papp [1]: 35 ×10⁻⁶ cm/s; solubility kinetic [2]: 25 µM (≈ 9.86 µg/mL)
2 | COc1cccc(C(=O)Nc2cc3c(cc2C)n(C)c(=O)n3C)c1 | > 50.1 µM | 
3 | Cn1c(=O)n(C)c2cc(C(N)=O)ccc21 | 79.4 µM | Activity [4]: Active; Activity [5]: inactive
4 | COc1cccc(C(=O)Nc2ccc3c(c2)n(C)c(=O)n3C)c1 | 15.8 µM | 

Further lines, with some results ahead:

Row | IC50 [3] | SMILES | further results
5 | > 50.1 µM | COc1ccccc1C(=O)Nc1ccc2c(c1)n(C)c(=O)n2C | 
6 | 2.51 µM | Cc1ccc(S(=O)(=O)Nc2ccc3c(c2)n(C)c(=O)n3C)c(C)c1 | 
